The target of one assay is T1, STAT6 (Homo sapiens, UniProt P42226).
T1 construct: stably transfected HaCaT keratinocyte cell line, which expresses NanoLuc luciferase reporter gene under the transcriptional control of the STAT6 responsive promoter; endogenous in cells; host or cells: HaCaT keratinocyte reporter cell line (stably transfected with a NanoLuc reporter)
T1 sequence (P42226 1-847): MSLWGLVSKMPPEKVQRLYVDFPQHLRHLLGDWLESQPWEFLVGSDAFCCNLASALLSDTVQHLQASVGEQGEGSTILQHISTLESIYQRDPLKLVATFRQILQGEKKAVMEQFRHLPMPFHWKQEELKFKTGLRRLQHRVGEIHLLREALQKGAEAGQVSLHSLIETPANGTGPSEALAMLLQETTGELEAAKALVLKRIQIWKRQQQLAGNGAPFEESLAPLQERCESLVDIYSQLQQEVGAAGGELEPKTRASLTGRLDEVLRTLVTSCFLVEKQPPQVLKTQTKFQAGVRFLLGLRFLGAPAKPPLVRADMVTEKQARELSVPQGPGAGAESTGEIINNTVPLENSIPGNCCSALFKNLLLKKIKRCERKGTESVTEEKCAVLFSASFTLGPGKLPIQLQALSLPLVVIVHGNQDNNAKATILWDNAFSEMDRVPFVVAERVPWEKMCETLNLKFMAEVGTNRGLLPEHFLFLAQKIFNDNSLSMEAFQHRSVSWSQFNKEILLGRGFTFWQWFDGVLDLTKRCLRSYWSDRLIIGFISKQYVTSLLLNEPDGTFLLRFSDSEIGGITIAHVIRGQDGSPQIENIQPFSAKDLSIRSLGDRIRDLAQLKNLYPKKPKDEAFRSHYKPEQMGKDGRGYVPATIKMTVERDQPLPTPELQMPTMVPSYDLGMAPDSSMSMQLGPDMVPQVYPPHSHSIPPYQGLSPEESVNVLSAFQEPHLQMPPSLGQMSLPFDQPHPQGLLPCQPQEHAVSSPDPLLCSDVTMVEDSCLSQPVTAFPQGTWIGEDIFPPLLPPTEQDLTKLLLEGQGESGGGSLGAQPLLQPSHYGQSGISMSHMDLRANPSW
The assay can be described thus: STAT6 Reporter Luciferase Assay (IL-13 stimulated HaCaT keratinocyte NanoLuc reporter cells). In kind it is cell-based. To be noted: read-out: Reporter EC50. An outline of the steps: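 Compounds were tested as 11-point, 4-fold series in duplicate, applied for 2 h at 37 °C in low-serum (2% FBS) DMEM. The cells were a stable HaCaT line with NanoLuc under a STAT6-responsive IL-13Ra2 promoter. After 4 h with 0.12 nM IL-13, Nano-Glo luminescence was measured.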

In assay [1] the test system is CCL17 secretion in peripheral human whole blood. The assay can be described thus: Human Whole Blood (HWB) CCL17 TR-FRET Assay (IL-13 stimulated CCL17 secretion). The class given is cell-based. An outline of the steps:
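Compounds are titrated (11 points, 3-fold, duplicate) into fresh heparinized human whole blood and held 2 h at 37 °C before IL-13 challenge (10 ng/mL final). After 48 h at 37 °C, serum CCL17 is measured by TR-FRET sandwich assay and IC50 values are calculated.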
Background: Time-resolved FRET reads energy transfer from a long-lived donor to a nearby acceptor.

Setting [2] is: STAT6 NanoLuc luciferase reporter, IL-13 stimulated HaCaT keratinocyte cells.
Setting [3] is: Homo sapiens, 48 h, inhibition of CCL17 secretion in human whole blood, 10 ng/mL IL13, 48 hours.
[4] abbreviates: IL-13 stimulated HaCaT STAT6 NanoLuc reporter cells.
[5] abbreviates: Homo sapiens, 48 h, human whole blood, IL-13 stimulated.
Setting [6] is: Homo sapiens, 48 h, human whole blood, 10 ng/mL IL13, 48 hours.
[7] abbreviates: human whole blood, IL-13 stimulated, 48 hours.

Read-outs that look alike come from different tables or passages of the source.

As a reminder, the EC50 is the midpoint of the concentration-response curve. As usually defined, the IC50 is the midpoint of a concentration-inhibition curve.

Turning to `CN(C)C(=O)Nc1ccc(CNC(=O)c2nc(C(C)(F)F)n3c2CN(c2ccc(C(=O)N(C)C)cn2)CC3)cc1` [Example 52, 3-(1,1-difluoroethyl)-7-(5-(dimethylcarbamoyl)pyridin-2-yl)-N-(4-(3,3-dimethylureido)benzyl)-5,6,7,8-tetrahydroimidazo[1,5-a]pyrazine-1-carboxamide], at STAT6 (setting [2]), the EC50 was 9 nM. Further, the midpoint of inhibition in assay [1] (setting [3]), the IC50, lay at 64 nM.
With `CC(C)n1nc(C(=O)NCc2ccc(NC(=O)N3CC[C@@H](C#N)C3)cc2)c2c1CCN(c1ccc(C(=O)N(C)C)cn1)C2` [Example 183, (R)-N-(4-(3-cyanopyrrolidine-1-carboxamido)benzyl)-5-(5-(dimethylcarbamoyl)pyridin-2-yl)-1-isopropyl-4,5,6,7-tetrahydro-1H-pyrazolo[4,3-c]pyridine-3-carboxamide], on STAT6 (setting [4]), the EC50 turned out to be 16 nM. In addition, the IC50 in assay [1] (setting [5]) was 67 nM.
Regarding `CN(C)C(=O)Nc1ccc(CNC(=O)c2nn(C)c3c2CN(c2ccc(-c4nccn4C)cn2)CC3)cc1` [Example 12, N-(4-(3,3-Dimethylureido)benzyl)-1-methyl-5-(5-(1-methyl-1H-imidazol-2-yl)pyridin-2-yl)-4,5,6,7-tetrahydro-1H-pyrazolo[4,3-c]pyridine-3-carboxamide], at STAT6 (setting [2]), the EC50 came to 16 nM. The same compound had an IC50 in assay [1] (setting [3]) of 93 nM.
In the case of `CCn1nc(C(=O)NCc2ccc(NC(=O)N(C)C)cc2)c2c1C(C)(C)CN(c1ccc(C(=O)N(C)C)cn1)C2` [Example 238, 5-(5-(dimethylcarbamoyl)pyridin-2-yl)-N-(4-(3,3-dimethylureido)benzyl)-1-ethyl-7,7-dimethyl-4,5,6,7-tetrahydro-1H-pyrazolo[4,3-c]pyridine-3-carboxamide], the concentration for a half-maximal effect (EC50) on STAT6 (setting [4]) amounted to 2 nM. The IC50 in assay [1] (setting [5]) came out at 9 nM.
On to `CC(C)n1nc(C(=O)NCc2ccc(NC(=O)N(C)C)cc2)c2c1CCN(c1ncc(C(=O)N(C)C)cn1)C2` [Example 35, 5-(5-(Dimethylcarbamoyl)pyrimidin-2-yl)-N-(4-(3,3-dimethylureido)benzyl)-1-isopropyl-4,5,6,7-tetrahydro-1H-pyrazolo[4,3-c]pyridine-3-carboxamide], for which, at STAT6 (setting [2]), the EC50 worked out at 9 nM. Further, half-maximal inhibition in assay [1] (inhibition of CCL17 secretion in human whole blood, 10 ng/mL IL13, 48 hours) (IC50) was put at 47 nM.
Consider `CC(C)n1nc(C(=O)NCc2ccc(NC(=O)N(C)C)cc2)c2c1CCN(c1ccc(C3CCCO3)cn1)C2` (racemic) [Example 322, rac-(R)—N-(4-(3,3-Dimethylureido)benzyl)-1-isopropyl-5-(5-(tetrahydrofuran-2-yl)pyridin-2-yl)-4,5,6,7-tetrahydro-1H-pyrazolo[4,3-c]pyridine-3-carboxamide], for which the EC50 on STAT6 (setting [4]) stood at 77 nM. For the same compound, the half-inhibitory concentration (IC50) in assay [1] (setting [5]) stood at 1350 nM.
Turning to `CC(C)n1nc(C(=O)NCc2ccc(NC(=O)N(C)C)cc2)c2c1CCN(c1ccc(N3C(=O)CC[C@@H]3CO)cn1)C2` [Example 88, (R)-N-(4-(3,3-dimethylureido)benzyl)-5-(5-(2-(hydroxymethyl)-5-oxopyrrolidin-1-yl)pyridin-2-yl)-1-isopropyl-4,5,6,7-tetrahydro-1H-pyrazolo[4,3-c]pyridine-3-carboxamide], the EC50 at STAT6 (setting [2]) is 424 nM. The IC50 in assay [1] (setting [3]) amounted to 2080 nM.
For the compound `CC(C)n1nc(C(=O)NCc2ccc(NC(=O)N3CCN(C)CC3)c(F)c2)c2c1[C@@H](C)CN(c1ccc(C(=O)N(C)C)cn1)C2` [Example 606, (S)-5-(5-(dimethylcarbamoyl)pyridin-2-yl)-N-(3-fluoro-4-(4-methylpiperazine-1-carboxamido)benzyl)-1-isopropyl-7-methyl-4,5,6,7-tetrahydro-1H-pyrazolo[4,3-c]pyridine-3-carboxamide], the EC50 at STAT6 (setting [4]) came to 1 nM. This compound gave an IC50 in assay [1] (setting [6]) of 9 nM.
Take `CC(C)n1nc(C(=O)NCc2ccc(C(N)=O)cc2)c2c1[C@@H](C)CN(c1ncc(-c3nccn3C)cn1)C2` [Example 719, (S)-N-(4-carbamoylbenzyl)-1-isopropyl-7-methyl-5-(5-(1-methyl-1H-imidazol-2-yl)pyrimidin-2-yl)-4,5,6,7-tetrahydro-1H-pyrazolo[4,3-c]pyridine-3-carboxamide]: on STAT6 (setting [4]), the EC50 came to 1000 nM. Further, in assay [1] (Homo sapiens, 48 h, human whole blood, IL-13 10 ng/mL), the IC50 is 3690 nM.
Regarding `CC(C)n1nc(C(=O)NCc2ccc(NC(=O)N(C)C)cc2)c2c1[C@@H](C)CN(c1ccc(C(=O)NCc3ccc(NC(=O)N(C)C)cc3)cn1)C2` [Example 501, (S)-N-(4-(3,3-dimethylureido)benzyl)-5-(5-((4-(3,3-dimethylureido)benzyl)carbamoyl)pyridin-2-yl)-1-isopropyl-7-methyl-4,5,6,7-tetrahydro-1H-pyrazolo[4,3-c]pyridine-3-carboxamide], the EC50 at STAT6 (setting [4]) turned out to be 7 nM. This compound also displayed an IC50 in assay [1] (setting [5]) of 50 nM.
The corresponding values for `CC(C)n1nc(C(=O)NCc2ccc(NC(=O)N(C)C)cc2)c2c1CCN(c1ccc(CC(N)=O)cn1)C2` [Example 430, 5-(5-(2-amino-2-oxoethyl)pyridin-2-yl)-N-(4-(3,3-dimethylureido)benzyl)-1-isopropyl-4,5,6,7-tetrahydro-1H-pyrazolo[4,3-c]pyridine-3-carboxamide] are 333 nM and 1410 nM.
Taken in the same sequence, the figures for `CNC(=O)c1ccc(CNC(=O)c2nn(C(C)C)c3c2CN(c2ccc(C(=O)N4Cc5cccnc5C4)cn2)C[C@@H]3C)cc1` [Example 396, (S)-5-(5-(6,7-dihydro-5H-pyrrolo[3,4-b]pyridine-6-carbonyl)pyridin-2-yl)-1-isopropyl-7-methyl-N-(4-(methylcarbamoyl)benzyl)-4,5,6,7-tetrahydro-1H-pyrazolo[4,3-c]pyridine-3-carboxamide] were 1 nM and 15 nM.
For the compound `CCC1CN(c2ccc(C(=O)N(C)C)cn2)Cc2c(C(=O)NCc3ccc(NC(=O)N(C)C)cc3)nn(C(C)C)c21` (single isomer, unassigned) [Example 310, rel-(R or S)-5-(5-(dimethylcarbamoyl)pyridin-2-yl)-N-(4-(3,3-dimethylureido)benzyl)-7-ethyl-1-isopropyl-4,5,6,7-tetrahydro-1H-pyrazolo[4,3-c]pyridine-3-carboxamide], the EC50 on STAT6 (setting [4]) stood at 8 nM. The same compound came in with an IC50 in assay [1] (setting [7]) of 115 nM.
Taken in the same sequence, the figures for `CCc1nc(C(=O)NCc2ccc(NC(=O)N(C)C)cc2)c2n1C(C)CN(c1ccc(C(=O)N(C)C)cn1)C2` (single isomer, unassigned) [Example 233, rel-(R or S)-7-(5-(dimethylcarbamoyl)pyridin-2-yl)-N-(4-(3,3-dimethylureido)benzyl)-3-ethyl-5-methyl-5,6,7,8-tetrahydroimidazo[1,5-a]pyrazine-1-carboxamide] were 42 nM and 78 nM.
As for `Cc1c[nH]c(-c2ccc(CNC(=O)c3nn(C(C)C)c4c3CN(c3ncc(N5CCOC5=O)cn3)C[C@@H]4C)cc2)n1` [Example 519, (S)-1-isopropyl-7-methyl-N-(4-(4-methyl-1H-imidazol-2-yl)benzyl)-5-(5-(2-oxooxazolidin-3-yl)pyrimidin-2-yl)-4,5,6,7-tetrahydro-1H-pyrazolo[4,3-c]pyridine-3-carboxamide], at STAT6 (setting [4]), the EC50 worked out at 8 nM. In assay [1] (setting [5]), the IC50 turned out to be 219 nM.
Taken in the same sequence, the figures for `CC(C)n1nc(C(=O)NCc2ccc(NC(=O)N(C)C)cc2)c2c1C(O)CN(c1ccc(C(=O)N(C)C)cn1)C2` (stereo not shown) [Example 473, 5-(5-(dimethylcarbamoyl)pyridin-2-yl)-N-(4-(3,3-dimethylureido)benzyl)-7-hydroxy-1-isopropyl-4,5,6,7-tetrahydro-1H-pyrazolo[4,3-c]pyridine-3-carboxamide] were 0.3 nM and 5 nM.
Regarding `CC(C)n1nc(C(=O)NCc2ccc(NC(=O)N3CC[C@](C)(N)C3)cc2)c2c1[C@@H](C)CN(c1ccc(C(=O)N(C)C)cc1)C2` [Example 570, (S)-N-(4-((S)-3-amino-3-methylpyrrolidine-1-carboxamido)benzyl)-5-(4-(dimethylcarbamoyl)phenyl)-1-isopropyl-7-methyl-4,5,6,7-tetrahydro-1H-pyrazolo[4,3-c]pyridine-3-carboxamide], the EC50 at STAT6 (setting [4]) came out at 3 nM. The compound also displayed an IC50 in assay [1] (setting [6]) of 27 nM.

Source of the values: US20250320213A1, “Nitrogen-Containing Heterocyclic Compounds” (Pfizer Inc., priority 2024, published 2025).
